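Dose response: 5 concentrations. Exposure: 48 h. Format: 96-well plates. Endpoint: linear interpolation; highest concentration if not reached. At the GI50, growth is halved.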 Calls of active or inactive are those of the source. Rule as the data show it: active = GI50 up to about 1.1 µM and inactive = higher.
How the values were obtained:
Experiment in all cases: DTP human tumour cell line panel, 48 h
OVCAR-8 = system: OVCAR-8
OVCAR-5 = system: OVCAR-5
RXF 393 = system: RXF 393
Malme-3M = system: Malme-3M
OVCAR-4 = system: OVCAR-4
HCT-15 = system: HCT-15
MDA-MB-435 = system: MDA-MB-435
A549 = system: A549
SK-MEL-5 = system: SK-MEL-5
786-0 = system: 786-0
SR = system: SR
BT-549 = system: BT-549
SNB-19 = system: SNB-19
K562 = system: K562
HL-60 = system: HL-60
NCI-H460 = system: NCI-H460
COLO 205 = system: COLO 205
MOLT-4 = system: MOLT-4
CCRF-CEM = system: CCRF-CEM
HOP-92 = system: HOP-92

Row | Structure (SMILES) | GI50 (OVCAR-8) | GI50 (OVCAR-5) | GI50 (RXF 393) | GI50 (Malme-3M) | GI50 (OVCAR-4) | GI50 (HCT-15) [µM] | GI50 (MDA-MB-435) | GI50 (A549) | GI50 (SK-MEL-5) | GI50 (786-0) | GI50 (SR) | GI50 (BT-549) | GI50 (SNB-19) | GI50 (K562) | GI50 (HL-60) | GI50 (NCI-H460) | GI50 (COLO 205) | GI50 (MOLT-4) | GI50 (CCRF-CEM) | GI50 (HOP-92)
1 | O=C1C(CN2CCCCC2)CCCC1CN1CCCCC1 (configuration not stated) | 18.5 µM (inactive) | > 55.6 µM (inactive) | 16.3 µM (inactive) | 8.07 µM (inactive) | 14.4 µM (inactive) | 18.3 | 17 µM (inactive) | > 92 µM (inactive) | 32.1 µM (inactive) | 8.26 µM (inactive) | 15.3 µM (inactive) | 16.4 µM (inactive) | – | – | – | – | – | – | – | –
2 | CC(C)=NOC(=O)OC[C@H]1O[C@@H](n2cnc3c(N)ncnc32)C(O)C1O (some centres not stated) | > 100 µM (inactive) | > 100 µM (inactive) | > 100 µM (inactive) | > 100 µM (inactive) | > 100 µM (inactive) | 72.1 | 82.6 µM (inactive) | > 100 µM (inactive) | > 100 µM (inactive) | 70 µM (inactive) | > 100 µM (inactive) | > 100 µM (inactive) | > 100 µM (inactive) | 30.1 µM (inactive) | 45.7 µM (inactive) | 40.9 µM (inactive) | > 100 µM (inactive) | > 100 µM (inactive) | > 100 µM (inactive) | –
3 | N=C(N)NC(=N)Nc1c(F)c(F)c(F)c(F)c1F | > 100 µM (inactive) | > 100 µM (inactive) | > 100 µM (inactive) | 69 µM (inactive) | > 100 µM (inactive) | > 100 | > 100 µM (inactive) | > 100 µM (inactive) | 44.8 µM (inactive) | > 100 µM (inactive) | 17.3 µM (inactive) | 92.3 µM (inactive) | > 100 µM (inactive) | 41.5 µM (inactive) | – | 90.4 µM (inactive) | 54 µM (inactive) | – | – | 36.7 µM (inactive)
4 | COc1cc2c(C)cc(O)cc2c2cc(O)c(C)cc12 | 14.4 µM (inactive) | 13.7 µM (inactive) | 12.4 µM (inactive) | – | 11.3 µM (inactive) | 8.55 | 9.75 µM (inactive) | 12.9 µM (inactive) | 10.5 µM (inactive) | 8.43 µM (inactive) | 1.53 µM (inactive) | 12.7 µM (inactive) | 11.5 µM (inactive) | 2.48 µM (inactive) | 2.96 µM (inactive) | 2.56 µM (inactive) | 9.91 µM (inactive) | 5.83 µM (inactive) | 2.78 µM (inactive) | 12 µM (inactive)
